Series [1] concerns MDA-MB-231 human breast cells. The series can be described thus: Proliferation assay, CellTiter 96 AQueous One Solution (MTS). Format: cell-based. The conditions noted are these: for inhibition at 10 µM: read-out: inhibition in initial screen at a fixed concentration. As for the experimental part: The MDA-MB-231 human breast cells were maintained at 37° C. with 5% CO2 in DMEM (Sigma) supplemented with 10% fetal bovine serum (FBS, Hyclone), 50 U/ml penicillin (Gibco), and 50 μg/ml streptomycin (Gibco). […] The relative number of the live cells was determined using the CellTiter® 96 AQueous One Solution Cell Proliferation Assay (Promega). Each condition was performed in triplicate, and data presented represent that obtained from at least two separate experiments.
The MDA-MB-231 human breast cells were maintained at 37° C. with 5% CO2 in DMEM (Sigma) supplemented with 10% fetal bovine serum (FBS, Hyclone), 50 U/ml penicillin (Gibco), and 50 μg/ml streptomycin (Gibco). […] The relative number of the live cells was determined using the CellTiter® 96 AQueous One Solution Cell Proliferation Assay (Promega). Each condition was performed in triplicate, and data presented to date were obtained from one determination.

The next series deals with T1, Icmt (Homo sapiens, UniProt O60725).
T1 construct: host or cells: Sf9 membranes
T1 sequence (O60725 whole entry, species assumed): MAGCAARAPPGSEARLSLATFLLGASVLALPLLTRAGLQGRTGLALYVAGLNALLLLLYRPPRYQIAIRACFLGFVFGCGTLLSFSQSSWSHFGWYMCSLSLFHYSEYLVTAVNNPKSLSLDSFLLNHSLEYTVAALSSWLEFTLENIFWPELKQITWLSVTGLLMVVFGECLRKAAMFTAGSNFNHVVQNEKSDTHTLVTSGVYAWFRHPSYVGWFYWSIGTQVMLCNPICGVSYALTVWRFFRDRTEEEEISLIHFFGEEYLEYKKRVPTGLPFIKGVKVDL
Description: Measurement of ICMT activity: incorporation of 3H from [3H]AdoMet into biotin-S-farnesyl L-cysteine, Sf9 membranes containing ICMT. Format: biochemical. The conditions noted are these: mean of two separate determinations; ±SD where more than two; read-out: IC50 Icmt inhibition. As for the experimental part:
(§1) Measurement of ICMT activity. Icmt activity was determined by following incorporation of ^3H from [^3H]AdoMet (Amersham Biosciences) into the small molecule substrate biotin-S-farnesyl L-cysteine (BFC). Inhibitors were first incubated at 37° C. for 20 min, with the Sf9 membranes containing ICMT. An assay mixture containing 4 μM BFC and 5 μM [^3H]AdoMet in 100 mM Hepes, pH 7.4 and 5 mM MgCl2 was added to initiate the reaction. Reactions were carried out at 37° C. for 20 min, and terminated by addition of 10% Tween 20 and streptavidin beads (GE Healthcare, 10 uL of packed beads suspended in 500 μL of 20 mM NaH2PO4, pH 7.4, containing 150 mM NaCl). The mixtures were mixed by gentle agitation overnight at 4° C. The beads were harvested by centrifugation in a tabletop microcentrifuge at 10,000 rpm for 5 min and washed three times with 500 μL of 20 mM NaH2PO4, pH 7.4, containing 150 mM NaCl. The beads were then suspended in the same buffer, transferred to scintillation vials, and radioactivity determined.
as §1, with “Activity.” for “activity.”

Series [2] in a line: Binding to fetal bovine serum (plasma protein binding), centrifugal filter device, HPLC. Format: in vitro ADME. The conditions noted are these: bovine, 5% w/v fetal bovine serum in phosphate buffered saline; for fraction unbound at 30 min, 1 µM / fraction unbound at 30 min, 4 µM / fraction unbound at 30 min, 10 µM / fraction unbound at 30 min, 25 µM: 5% fetal bovine serum in PBS. As for the experimental part: Semi-automatic high-throughput determination of plasma protein binding using a 96-well plate filtrate assembly and fast liquid chromatography—tandem mass spectrometry. […] Stock solutions were prepared in DMSO at 100× higher concentrations. A 5% w/v solution of fetal bovine serum in phosphate buffered saline was prepared. An aliquot (10 μL of the stock solution was added to 990 μL of the PBS solution containing 5% fetal bovine serum in a glass tube which was then incubated in a shaking water bath at 37° C. for 30 min. 500 μL of the solution was then transferred to a centrifugal filter device (Amicon Ultra 0.5 ml # UFC503096) and centrifuged at 14 000g, 15 min. After this time, the filter units were removed and placed (upside down) in a collecting tube containing 477 μL, of PBS. The latter was centrifuged at 2000g, 2 min to obtain the retentate. […] J.

The mark [3] stands for this setting: Homo sapiens, MDA-MB-231, 72 h, MDA-MB-231 cells, MTS colorimetric assay, 72 h, one determination.
[4] abbreviates: Homo sapiens, MDA-MB-231 cells, MTS colorimetric assay, 72 h, one determination, read-out: IC50.
The mark [5] stands for this setting: Homo sapiens, MDA-MB-231 cells, 72 h, mean of two separate determinations, ±SD where more than two, read-out: IC50 Antiproliferative activity.
Where [6] appears, read: Homo sapiens, MDA-MB-231, 72 h, read-out: IC50 Antiproliferative activity, MDA-MB-231 cells, 72 h, mean of two separate determinations, ±SD where more than two.
Setting [7] is: read-out: % Bound Average (converted).
[8] abbreviates: read-out: % Bound Run 1 (converted).
Setting [9] is: read-out: % Bound Run 2 (converted).
[10] abbreviates: read-out: % Bound Run 3 (converted).

One may read the IC50 as the concentration that inhibits the measured activity by half.

Where two headings read alike, the source gives them in different places. A value given as a limit tells only on which side of the number the result lay.

For the molecule `CCCCCCCCn1cc(CN(C)C)c2cc(F)ccc21` [6-9(1), 1-(5-fluoro-1-octyl-1H-indol-3-yl)-N,N-dimethylmethanamine], in series [1] (setting [3]), the IC50 was 4.9 µM.
In series [1] (setting [3]), `CCCCCCCCn1cc(CN2CCCCC2)c2cc(F)ccc21` [6-9(2), 5-fluoro-1-octyl-3-(piperidin-1-ylmethyl)-1H-indole] returned an IC50 of 2.3 µM.
Turning to `CCCCCCCCn1cc(CN2CCSCC2)c2cc(F)ccc21` [6-9(3), 4-((5-fluoro-1-octyl-1H-indol-3-yl)methyl)thiomorpholine], the inhibition at 10 µM in series [1] (Homo sapiens, MDA-MB-231 cells) is roughly 45%.
On to `CCCCCCCCn1cc(CN2CCOCC2)c2cc(F)ccc21` [6-9(4), 4-((5-fluoro-1-octyl-1H-indol-3-yl)methyl)morpholine], for which, in series [1] (setting [4]), the IC50 was determined as 3.2 µM.
As to `CCCCCCCCn1cc(CN2CCCC2)c2cc(F)ccc21` [6-9(5), 5-fluoro-1-octyl-3-(pyrrolidin-1-ylmethyl)-1H-indole], in series [1] (setting [4]), the IC50 was 2.2 µM.
As for `CCCCCCCCn1cc(CN2CCN(C)CC2)c2cc(F)ccc21` [6-9(6), 5-fluoro-3-((4-methylpiperazin-1-yl)methyl)-1-octyl-1H-indole], the inhibition at 10 µM in series [1] (Homo sapiens, MDA-MB-231 cells) is roughly 45%.
For the molecule `CCCCCCCCn1cc(CC(N)=O)c2cc(F)ccc21` [Compound 1-8, 2-(5-Fluoro-1-octyl-1H-indol-3-yl)acetamide], the IC50 in series [1] (setting [5]) worked out at 70 µM; at Icmt, 7 µM.
Regarding `CCCCCCCCn1cc(CC(=O)N2CCN(C)CC2)c2cc(-c3cccc(C)c3)ccc21` [Compound 3-6, 1-(4-Methylpiperazin-1-yl)-2-(1-octyl-5-m-tolyl-1H-indol-3-yl)ethanone], the IC50 in series [1] (setting [6]) worked out at 19.7 ± 0.9 µM; on Icmt it was 1.7 ± 0.4 µM.
On to `CCCCCCCCn1cc(CC(=O)NC)c2cc(-c3cccc(C)c3)ccc21` [Compound 3-7, N-Methyl-2-(1-octyl-5-m-tolyl-1H-indol-3-yl)acetamide], for which the concentration for half-maximal inhibition (IC50) in series [1] (setting [5]) is 4.7 µM; at Icmt, 2.1 µM.
For `CCCCCCCCn1cc(C(N)=O)c2cc(-c3cccc(C)c3)ccc21` [Compound 5-1, 1-Octyl-5-m-tolyl-1H-indole-3-carboxamide], the IC50 in series [1] (setting [6]) was greater than 100 µM; at Icmt, 30 µM.
Consider `CCCCCCCCn1cc(CCC(N)=O)c2cc(-c3cccc(C)c3)ccc21` [Compound 5-2, 3-(1-Octyl-5-m-tolyl-1H-indol-3-yl)propanamide], for which the IC50 in series [1] (setting [5]) stood at 20.7 µM; at Icmt, 1.2 µM.
Consider `CC(C)=CCn1ccc2cc(-c3cccc(C)c3)ccc21` [Compound 6-3, 1-(3-Methylbut-2-enyl)-5-m-tolyl-1H-indole], for which the IC50 (in series [1] (setting [5]); on Icmt) was greater than 100 µM each time.
Take `CC(C)=CCn1cc(CN2CCOCC2)c2cc(-c3cccc(C)c3)ccc21` [Compound 6-6, 4-((1-(3-methylbut-2-enyl)-5-m-tolyl-1H-indol-3-yl)methyl)morpholine]: the IC50 in series [1] (setting [6]) is 34 ± 3 µM; at Icmt it was 2 ± 0.8 µM.
Turning to `CC(C)=CCn1cc(CC(N)=O)c2cc(F)ccc21` [Compound 6-8, 2-(5-Fluoro-1-(3-methylbut-2-enyl)-1H-indol-3-yl)acetamide], the IC50 in series [1] (setting [5]) was greater than 100 µM; on Icmt, 69 µM.
With `CCCCCCCCn1cc(CN(CC)CC)c2cc(F)ccc21` [Compound 6-9, N-ethyl-N-((5-fluoro-1-octyl-1H-indol-3-yl)methyl)ethanamine], the IC50 in series [1] (setting [3]) was determined as 2.7 µM; in series [1] (MDA-MB-231 cells, MTS colorimetric assay, 72 h, one determination), 2 µM.
Turning to `CCCCCCCCn1cc(CC(N)=O)c2cc(-c3cccc(C)c3)ccc21` [cysmethynil, 2-(1-octyl-5-m-tolyl-1H-indol-3-yl) acetamide, reference compound], in series [2] (setting [7]), the fraction unbound at 30 min, 1 µM is 0.0962; the fraction unbound at 30 min, 4 µM was 0.104; the fraction unbound at 30 min, 10 µM is 0.0945; the fraction unbound at 30 min, 25 µM was 0.122. Also, in series [2] (setting [8]), the fraction unbound at 30 min, 1 µM is 0.107; the fraction unbound at 30 min, 4 µM is 0.0557; the fraction unbound at 30 min, 10 µM was 0.136; the fraction unbound at 30 min, 25 µM is 0.219. For the same molecule, in series [2] (setting [9]), the fraction unbound at 30 min, 1 µM is 0.0611; the fraction unbound at 30 min, 4 µM is 0.124; the fraction unbound at 30 min, 10 µM is 0.0943; the fraction unbound at 30 min, 25 µM was 0.0636. In series [2] (setting [10]), the fraction unbound at 30 min, 1 µM was 0.12; the fraction unbound at 30 min, 4 µM is 0.131; the fraction unbound at 30 min, 10 µM is 0.0538; the fraction unbound at 30 min, 25 µM was 0.0844. Also, in series [2] (all conc (1, 4, 10, 25 uM), read-out: % Bound Average, all conc (converted)), the fraction unbound at 30 min was 0.104. The IC50 at Icmt amounted to 1.5 µM.

The record behind these values is patent US8742100B2, “Small molecule inhibitors of isoprenylcysteine carboxyl methyltransferase with potential anticancer activity” (National University of Singapore, priority 2009, dated 2014).
